Like-named read-outs stand apart in the source and are kept apart here.
Columns and labels:
mTOR [1] = target: T1, mTOR (Homo sapiens, UniProt P42345); format: cell-based; details: 3A1 clone transiently transfected with SB-eIF4E/LB-4E-BP2, FIG. 11
Excerpt: We compared single-cell clone termed “3A1” (FIG. 10A,B) with single-cell clone termed “1C3” (FIG. 10C,D) in the assay containing either LB-4E-BP1(Figure 10A,C) or LB-4E-BP2 (FIG. 10B,D).

S2035I mTOR [2] = target: T2, S2035I mTOR (Homo sapiens, UniProt P42345, S2035I); test: B10 clone stably expressing SB-eIF4E, transient LB-4E-BP2 and S2035I mTOR; format: cell-based; details: FIG. 18
T2 construct: our assay has the ability to measure the function of full-length mTOR and its genetic variants; expressed in transfected cells

S2035I mTOR [3] = target: T2, S2035I mTOR; test: 3A1 clone stably expressing SB-eIF4E, transiently expressing LB-4E-BP2 and S2035I mTOR; format: cell-based; details: 3A1 stably SB-eIF4E, concentration curves at least 5 logs, FIG. 16
Excerpt: (§1) To overcome this issue, we created a stable cell pool with the 3A1 clone, stably expressing only SB-eIF4E.

WT mTOR [4] = target: T3, WT mTOR (Homo sapiens, UniProt P42345); test: 3A1 clone stably expressing SB-eIF4E, transiently expressing LB-4E-BP2 and WT mTOR; format: cell-based; details: 3A1 stably SB-eIF4E, concentration curves at least 5 logs, FIG. 16
T3 construct: our assay has the ability to measure the function of full-length mTOR and its genetic variants; expressed in transfected cells
Excerpt: as §1

WT mTOR [5] = target: T3, WT mTOR; test: B10 clone (4E-BP dKO, MTOR genomic modification) stably expressing SB-eIF4E, transient LB-4E-BP2 and WT mTOR; format: cell-based; details: FIG. 18
[6] = system: phosphorylation of the ribosomal protein S6; details: Guichard et al., 2015; read-out: IC50 for inhibition of phosphorylation of the ribosomal protein S6; cited from earlier work
mTOR [7] = target: T1, mTOR; test: 3A1 clone with stable expression of SB-eIF4E/LB-4E-BP2 (stable pool and single-cell clones); format: cell-based; details: 3A1 stable cell line pool expressing SB-eIF4E/LB-4E-BP2, FIG. 12
Experimental: Taking the 3A1 clone, we created a stable cell line pool (cells that underwent a minimum of 2 weeks of hygromycin selection) with stable expression of SB-eIF4E/ LB-4E-BP2.
Three to five days after transfection, the transfected cells were trypsinized and replated on to 6-count of 10 cm plates containing 300 μg/ml of hygromycin (ThermoFisher). For 7 days, media was replaced every 2-3 days with fresh hygromycin, after which cells were trypsinized, pooled and concentrated, and counted for plating as single cells on to 96-well plates. Fifty ml containing 400 cells were plated on to 5-count of 96-well plates with each well containing 100 μl of media+cell. DMEM conditioned with previous incubation with HEK293 cells was saved, filtered, and used for single-cell plating. The remainder of the hygromycin treated cells was then pooled and used as “stable pools” for experimentation.

cellular proliferation = details: Hsieh et al., 2012; read-out: EC50 for the inhibition of cellular proliferation; cited from earlier work
[8] = system: phosphorylation of 4E-BP1; details: read-out: reported IC50 in inhibiting phosphorylation of 4E-BP1; Western blot; Sedrani et al., 1998; cited from earlier work

concentration dependence of luminescence (mTOR [1])	concentration dependence of signal (S2035I mTOR [3])	Compound	concentration dependence of signal (S2035I mTOR [2])	concentration dependence of signal (WT mTOR [4])	concentration dependence of signal (WT mTOR [5])	IC50 [6]	concentration dependence of luminescence (mTOR [7])	EC50 (cellular proliferation)	IC50 [8]
concentration dependent activation	concentration-dependent increase	CNC(=O)c1cccc(-c2ccc3c(N4CCOC[C@@H]4C)nc(N4CCOC[C@@H]4C)nc3n2)c1 [AZD2014]	concentration-dependent increase for both mTORs	concentration-dependent increase in signal	concentration-dependent increase for both mTORs	210 nM	concentration-dependent activation of luminescence		
		CO[C@H]1CC[C@H](N2C(=O)CNc3ncc(-c4ccc(C(C)(C)O)nc4)nc32)CC1 [CC223]					concentration-dependent increase in luminescence		
		CO[C@@H](C)Cn1c(=O)n(C)c2cnc3ccc(-c4cncc(C(C)(C)O)c4)cc3c21 [LY3023414]					concentration-dependent increase in luminescence		
		CCc1cncnc1N1CCN(Cc2nc3ccc(C(F)(F)F)cc3[nH]2)CC1 [PF4708671]					did not		
concentration dependent activation	rapamycin resistance	CO[C@H]1C[C@@H]2CC[C@@H](C)[C@@](O)(O2)C(=O)C(=O)N2CCCC[C@H]2C(=O)O[C@H]([C@H](C)C[C@@H]2CC[C@@H](OCCO)[C@H](OC)C2)CC(=O)[C@H](C)/C=C(\C)[C@@H](O)[C@@H](OC)C(=O)[C@H](C)C[C@H](C)/C=C/C=C/C=C/1C [everolimus]	cleaner difference between the WT and S2035I mTOR	concentration-dependent increase in signal			concentration-dependent activation of luminescence		1.6 to 2.4 nM

Compound	concentration dependence of luminescence (mTOR [1])	concentration dependence of signal (S2035I mTOR [3])	concentration dependence of signal (S2035I mTOR [2])	concentration dependence of signal (WT mTOR [4])	concentration dependence of signal (WT mTOR [5])	IC50 [6]	concentration dependence of luminescence (mTOR [7])	EC50 (cellular proliferation)	IC50 [8]
CC(C)n1nc(-c2ccc3oc(N)nc3c2)c2c(N)ncnc21 [INK128]	concentration dependent activation	concentration-dependent increase	concentration-dependent increase for both mTORs	concentration-dependent increase in signal	concentration-dependent increase for both mTORs		concentration-dependent activation of luminescence	17 nM	

From patent US10351609B2, “Cell-based assay for determining mTOR activity” (Medical Diagnostic Laboratories, LLC, priority 2016, dated 2019)
